Values joined by “and” are separate entries in the source; they are usually repeats but may differ in a detail not shown here. Equal values may be shown once.
B1: E06-scFv: single chain variable antibody fragment of E06 (heavy and light variable regions joined by 15-amino acid linker), expressed in transgenic mice (protein)
scFv: DAAQPARRAVRSLDIVMTQSPSSLSVSAGKKVTISCTASESLYSSKHKVHYLAWYQKKPEQSPKLLIYGASNRYIGVPDRFTGSGSGTDFTLTISSVQVEDLTHYYCAQFYSYPLTFGAGTKLEIKGGGGSGGGGSGGGGSEVKLVESGGGLVQPGGSLRLSCATSGFTFSDFYMEWVRQAPGKRLEWIAASRNKANDYTTEYADSVKGRFIVSRDTSQSILYLQMNALRAEDTAIYYCARDYYGSSYWYFDVWGAGTTVTVSSRGGPEQKLISEEDLNSAVD

What was measured:
[1] = test system: neonatal rat cardiomyocytes (NNCM); test: In vitro OxPC treatment and assessment of cell viability (calcein-AM / ethidium homodimer-1); format: cell-based; conditions: 4 hours
Excerpt: Cell culture of rat cardiomyocytes. All animal experiments performed conform to the NIH guidelines regarding animal experimentation. Neonatal rat cardiomyocytes (NNCM) were isolated from 1-2 day old Sprague-Dawley rat pups. Whole hearts were excised from rat pups by midline sternotomy after cervical dislocation. Hearts were washed and minced to adequately break up macroscopic structures before re-washing with cold filter sterilized phosphate buffered saline (PBS) containing 10 g/L of glucose to remove red blood cells and debris. Repeated enzymatic digestion of heart fragments was performed with collagenase (740U), trypsin (370U), and DNase (2880U) (Worthington Biochemical) agitating at 35° C. for three 10-minute and three 7-minute digestions. Digested supernatant solutions were centrifuged into a cell pellet and then separation of cell types using a Percoll® (GE Healthcare) gradient of 1.05, 1.06, and 1.082 g/mL allowed for a layer enriched with myocytes to be isolated. To remove fibroblasts, the cells were pre-plated on non-coated 150 mm culture plates for 45 min. Purified NNCM (95% pure by sarcomere staining) were then transferred to sterile tissue culture plates at a cell density of 1.75×10^6/35-mm plate. Collagen-coated glass coverslips in 24-well tissue culture plates were used for microscopy analysis and NNCM were plated at 3.2×10^5/well. Cells were incubated overnight in Dulbecco's Modified Eagle Medium/Ham's nutrient mixture F-12 (1:1) containing 2 mM glutamine, 3 mM NaHCO3, 15 mM HEPES, and […] gentamycin (DMEM/F12) plus 10% fetal bovine serum (FBS). DMEM/F12 with 10% FBS was changed to serum-free DMEM/F12 (DFSF) the following day. Control solution consisted of 140 mM NaCl, 6 mM KCl, 1.25 mM CaCl2, 6 mM HEPES, and 10 mM D-glucose buffered to pH 7.4, ischemic solution was buffered to pH 6.0, and consisted of the same components, except 8 mM KCl was added and no D-glucose was added. The ischemic buffer was purged of oxygen by bubbling 95% N2 and 5% CO2 gas into the medium for 1 hour before being applied to cells. A hypoxic chamber designed for storage in a 37° C. water jacketed tissue culture incubator was used to maintain an atmosphere of 95% N2 and 5% CO2 gas conditions for 18 hours overnight. Reperfusion was achieved by applying control buffer to cells for 4 hours in a normal culture incubator. After the treatment, cells were scraped off into a small portion of PBS. Cardiomyocyte cell lysates were subjected to Western Blot analysis.
In vitro OxPC treatment and assessment of cell viability. Fresh DFSF was applied to NNCM on glass cover-slips and supplemented with 1, 2, 5, and 10 μM concentrations of OxPL lipids sonicated into PBS, forming micelles. Four OxPL species, POVPC, PONPC, PGPC, and PAzPC were applied to NNCM plates for 4 hours and compared to a non-oxidized PC standard PSPC. Plates were then washed with PBS before NNCM were analyzed for cell viability using vital dyes, calcein-acetoxymethyl ester (AM) and ethidium homodimer-1 (Invitrogen). Mitochondrial permeability after exposure to OxPL molecules was monitored by fluorescence microscopy using a solution of calcein-AM fluorescent dye with cobalt chloride (CoCl2) applied to cardiomyocytes cultured on glass coverslips.

[2] = test system: neonatal rat cardiomyocytes (NNCM); test: Neutralization of OxPL by E06: OxPL-induced cardiomyocyte cell death with E06 co-treatment; format: cell-based; conditions: 5 μM lipid alone, 2 hrs
Excerpt: Cell culture of rat cardiomyocytes. All animal experiments performed conform to the NIH guidelines regarding animal experimentation. Neonatal rat cardiomyocytes (NNCM) were isolated from 1-2 day old Sprague-Dawley rat pups. Whole hearts were excised from rat pups by midline sternotomy after cervical dislocation. Hearts were washed and minced to adequately break up macroscopic structures before re-washing with cold filter sterilized phosphate buffered saline (PBS) containing 10 g/L of glucose to remove red blood cells and debris. Repeated enzymatic digestion of heart fragments was performed with collagenase (740U), trypsin (370U), and DNase (2880U) (Worthington Biochemical) agitating at 35° C. for three 10-minute and three 7-minute digestions. Digested supernatant solutions were centrifuged into a cell pellet and then separation of cell types using a Percoll® (GE Healthcare) gradient of 1.05, 1.06, and 1.082 g/mL allowed for a layer enriched with myocytes to be isolated. To remove fibroblasts, the cells were pre-plated on non-coated 150 mm culture plates for 45 min. Purified NNCM (95% pure by sarcomere staining) were then transferred to sterile tissue culture plates at a cell density of 1.75×10^6/35-mm plate. Collagen-coated glass coverslips in 24-well tissue culture plates were used for microscopy analysis and NNCM were plated at 3.2×10^5/well. […]
In vitro OxPC treatment and assessment of cell viability. […] Plates were then washed with PBS before NNCM were analyzed for cell viability using vital dyes, calcein-acetoxymethyl ester (AM) and ethidium homodimer-1 (Invitrogen). Mitochondrial permeability after exposure to OxPL molecules was monitored by fluorescence microscopy using a solution of calcein-AM fluorescent dye with cobalt chloride (CoCl2) applied to cardiomyocytes cultured on glass coverslips.
To evaluate the effect of neutralizing OxPL on cell viability, the IgM E06 antibody was used at a concentration of 10 μg/mL within cell culture. […] Cell viability was assessed as described above. […] Images were assessed using Adobe Photoshop CS5.1 Software.

E06-scFv-Tg/Ldlr−/− mice = test: Myocardial ischemia-reperfusion (LAD ligation), histologic infarct size in E06-scFv-Tg/Ldlr−/− mice; format: in vivo, mouse
Excerpt: (§1) Generation and characterization of E06-scFv transgenic mice. The generation of transgenic C57BL/6 mice expressing the T15/E06 idiotype as a single chain variable antibody fragment—termed E06-scFv-Tg. In brief, the cDNAs encoding E06 variable regions of the heavy and light chains were linked with a 15-amino acid peptide by overlapping PCR, and cloned into an expression vector pSecTag2A (Invitrogen) containing a murine Ig kappa-chain leader sequence for secretion and c-myc and polyHis as epitope tags. […] The same construct was then cloned into the liver-specific expression vector pLiv7 and used to generate transgenic (Tg) mice in the C57BL/6 background expressing the E06-scFv transgene driven by the apoE promoter. Offspring were screened both for plasma E06-scFv titer and integration of the transgene by PCR amplification of the tail DNA. The transgenic E06-scFv founder lines were bred with each other to generate “homozygous” transgenic mice, and in turn, these were crossed into Ldl^−/− mice on the C57BL/6 background. All animals were genotyped for E06-scFv and Ldlr^−/−, respectively and plasma assayed to confirm expression of the E06-scFv by immunoassay. The E06-scFv mRNA was strongly expressed in liver, peritoneal macrophages and spleen, and to a lesser extent in heart. Plasma levels of the E06-scFv averaged 20-30 μg/ml in these studies.
Adult (18-20-week-old) E06-scFv-Tg/Ldlr^−/− mice or Ldlr^−/− mice weighing 16-40 grams, were anesthetized with a mixture of Ketamine (50 mg/kg) and Xylazine (5 mg/kg) and 1.0% isoflurane. Mice were intubated with a pressure ventilator (Kent Scientific, PhysioSuite. Peak inspiration pressure was ˜13 cm H2O and inspiration rate 100-110. The skin over the mid thorax was shaved and cleansed with Betadine or Chlorhexidine solution. A skin incision was made from the midsternal line toward the left armpit, and the chest opened with a 1 cm lateral cut along the left side of the sternum, cutting between the 3rd and 4th ribs to expose the left ventricle of the heart. The ascending aorta and main pulmonary artery were identified; the left anterior descending (LAD) coronary artery was located as it traverses the anterior wall of the heart, between the left and right ventricles. LAD coronary artery occlusion was performed by tying an 8-0 prolene suture ligature on a piece of 2-0 silk suture. Occlusion of the artery was assessed by blanching of the territory of perfusion of the LAD coronary artery, along with acute ST segment elevation on limb-lead electrocardiographic leads. Following an ischemic period of 60 minutes, the suture was removed from around the LAD coronary artery. […]
Histologic assessment of infarct size. […] The sizes of AAR and infarct area (IA) were quantified by computerized planimetry using ImageJ. […]

[3] = Plasma levels of E06-scFv in transgenic mice (immunoassay); format: in vivo, mouse; conditions: transgenic mice constitutively expressing E06-scFv (apoE promoter)
Excerpt: as §1

[4] = Binding properties of E06-scFv secreted into HEK293 culture supernatant; conditions: E06-scFv in HEK293 culture supernatant
Excerpt: as §1

[5] = E06-scFv-Tg/Ldlr−/− mice, 7 days after 60 minutes LAD ischemia and reperfusion
[6] = E06-scFv-Tg/Ldlr−/− vs Ldlr−/− mice, 7 days after IR

Molecule	cell death ([1]; 1 μM lipid) [%]	cell death ([1]; 2 μM lipid) [%]	cell death ([1]; 5 μM lipid) [%]	cell death without E06 [2] [%]	cell death ([1]; 10 μM lipid) [%]	IA/AAR (infarct area as percentage of area at risk) (E06-scFv-Tg/Ldlr−/− mice; [5]) [%]	IA/LV (infarct area as percentage of left ventricle) (E06-scFv-Tg/Ldlr−/− mice; [5]) [%]	smaller IA/AAR compared to Ldlr−/− mice (E06-scFv-Tg/Ldlr−/− mice; [6]) [%]	smaller IA/LV compared to Ldlr−/− mice (E06-scFv-Tg/Ldlr−/− mice; [6])	plasma levels of E06-scFv [3] [ng/mL]	binding properties compared with intact E06 [4]
CCCCCCCCCCCCCCCC(=O)OC[C@H](COP(=O)([O-])OCC[N+](C)(C)C)OC(=O)CCCCCCCC=O [PONPC, 1-palmitoyl-2-(9-oxo)nonanoyl-sn-glycero-3-phosphocholine]	28.3±8.9	42.0±6.2	70.0±18.6	25.3±3.4	–	–	–	–	–	–	–
CCCCCCCCCCCCCCCC(=O)OC[C@H](COP(=O)([O-])OCC[N+](C)(C)C)OC(=O)CCCC=O [POVPC, 1-palmitoyl-2-(5-oxovaleroyl)-sn-glycero-3-phosphocholine]	–	–	–	22.6±4.14	68.6±14.8	–	–	–	–	–	–
CCCCCCCCCCCCCCCCCC(=O)O[C@H](COC(=O)CCCCCCCCCCCCCCC)COP(=O)([O-])OCC[N+](C)(C)C [PSPC]	7.6±5.1	9.1±10.5	10.5±1.6	6.2±1.6	5.5±1.6	–	–	–	–	–	–
B1	–	–	–	–	–	47.7±17.6	16.3±7.5	65.9	58.8% and 58.5%	20000 to 30000	mimic those of the intact E06

From patent publication US11897969B2, “Inhibition of oxidation-specific epitopes to treat ischemic reperfusion injury” (The Regents of the University of California, priority 2017, dated 2024)
